Two molecules from paper PMC4767442 (Oncotarget, 2015) can be followed below.

Data set [1] has as its system HCT116 human colorectal carcinoma cell line. Briefly: MTT proliferation/viability assay, HCT116. Type of data set: cell-based. The settings on record: HCT-116, 72 h/37°C, mean ± S.D. As for the experimental part:
(§1) The MCF-7 human breast adenocarcinoma cell line was purchased from the European Collection of Cell Cultures (U.K.). The HL-60 human promyelocytic leukemia cell line, HCT116 human colorectal carcinoma cell line, H9c2 rat heart-derived myoblast cell line and 3T3 mouse embryo fibroblast line, were obtained from the American Type Culture Collection (VA, U.S.A.). Cells were cultured in Dulbecco's modified Eagle's medium (DMEM, Lonza, Switzerland) with or without (for MCF-7 cells only) phenol red, supplemented with 10% heat-inactivated fetal bovine serum (FBS; Lonza, Switzerland), 1% penicillin/streptomycin solution (Lonza, Switzerland) and 10 mM HEPES buffer (pH 7.0-7.6; Sigma-Aldrich, Germany). The HL-60 cell line was maintained in RPMI medium (Sigma-Aldrich, Germany) supplemented with 10% heat-inactivated FBS and 1% penicillin/streptomycin solution. All cell lines were cultured in 75 cm^2 tissue culture flasks (Switzerland) at 37°C in a humidified atmosphere of 5% CO2. Sub-confluent cells or, in the case of HL-60 cells, a cell suspension, were sub-cultured every 3-4 days.
(§2) Cells were seeded in 96-well plates for 24 h/37°C at a density of 5,000 (MCF-7), 10,000 (HL-60), 2,000 (HCT116) and 10,000 (3T3 and H9c2) cells/well. For 3T3 and H9c2 cells, the medium was changed to serum- and pyruvate-free DMEM 24 h prior to the experiments. Anti-proliferative and cytotoxicity effects of the compounds were studied at different concentrations after incubations for 72 h/37°C. Viabilities of cells were determined using MTT assays (Sigma-Aldrich, Germany) according to the manufacturer's instructions on a Tecan Infinite 200M plate reader (Tecan, Austria). The proliferation/viability of treated groups was expressed as a percentage of the untreated controls (100%).

In data set [2] the test system is MCF-7 cells. Briefly: 59Fe mobilization from cells prelabeled with 59Fe-transferrin. Type of data set: cell-based, human. The settings on record: MCF-7 prelabeled with 59Fe-transferrin, compounds 25 μmol·L^−1, 3 h/37°C. Here is the method: Iron chelation efficiency of the compounds at a concentration of 10 μmol·L^−1 was determined via 3 methods: (1) the calcein assay; (2) the ability of the ligands to induce ^59Fe mobilization from cells prelabeled with ^59Fe-transferrin; and (3) the efficacy of these agents to inhibit the uptake of ^59Fe from ^59Fe-transferrin [22, 38–40].
The fluorimetric calcein-AM assay was performed by established methods, as described previously. The Fe chelation efficiency of the metabolites in cells was expressed as a percentage of that of the parent chelator, Dp44mT or DpC (100%). For studies assessing the ability of these agents to induce ^59Fe mobilization and inhibit ^59Fe uptake from ^59Fe-transferrin by cells, human transferrin (Sigma-Aldrich, Germany) was labeled with ^59Fe (PerkinElmer, MA, USA) to generate ^59Fe-transferrin at a final specific activity of 500 pCi/pmol Fe, as previously described. The unbound ^59Fe was removed by exhaustive vacuum dialysis against a large excess of 0.15 M NaCl buffered to pH 7.4 with 1.4% NaHCO3 by standard methods.
To examine the ability of the studied substances to mobilize ^59Fe from MCF-7 cells or inhibit ^59Fe uptake from ^59Fe-transferrin, established techniques were utilized. For ^59Fe mobilization studies, cells were preincubated with ^59Fe-transferrin (0.75 μmol·L^−1) for 3 h/37°C, washed 4 times at 4°C on ice, and then reincubated with control medium or control medium containing the compounds (25 μmol·L^−1) for 3 h/37°C. The release of ^59Fe from the cells into the overlying medium was then examined by collecting both the cells and overlying medium and assessing ^59Fe levels using a γ-counter. For studies examining the ability of the agents to inhibit ^59Fe uptake from ^59Fe-transferrin, cells were incubated for 3 h/37°C with ^59Fe-transferrin (0.75 μmol·L^−1) in the presence or absence of the agents (25 μmol·L^−1), and then washed 4 times at 4°C on ice. The internalization of ^59Fe by cells was then assessed by incubation for 30 min/4°C with the general protease, Pronase (1 mg/mL), utilizing standard techniques. The amount of internalized ^59Fe in the presence of the agents was expressed as a percentage of ^59Fe internalized by control cells incubated in the presence of control media alone.

Data set [3] relates to cancer cell lines (HL-60, MCF-7 and HCT116). Briefly: MTT assay, cancer cell lines as a group. Type of data set: cell-based. The conditions noted are these: Homo sapiens, HL-60, MCF-7, HCT116, 72 h/37°C, read-out: IC50 against cancer cells (range over cell lines). Here is the method:
as §1, §2
Background: Tetrazolium dyes change colour on reduction, which living cells bring about.

The test system of data set [4] is MCF-7 human breast adenocarcinoma cell line. Briefly: MTT proliferation/viability assay, MCF-7. Type of data set: cell-based. The settings on record: MCF7, 72 h/37°C, mean ± S.D. As for the experimental part:
as §1, §2

In data set [5] the test system is HL-60 human promyelocytic leukemia cell line. Put plainly: MTT proliferation/viability assay, HL-60. Type of data set: cell-based. The conditions noted are these: 72 h/37°C, mean ± S.D. As for the experimental part:
as §1, §2

In data set [6] the test system is H9c2 rat heart-derived myoblast cell line. Briefly: MTT proliferation/viability assay, H9c2. The conditions noted are these: 72 h/37°C, mean ± S.D., serum- and pyruvate-free DMEM. Type of data set: cell-based. Here is the method:
as §1, §2

A short description of data set [7]: Long-term stability in plasma samples at -80°C. Type of data set: in vitro ADME, rat. The settings on record: for Long-term stability: plasma, -80°C, 7 days; for decomposition on storage (in words): up to 7 days stored at −80°C. As for the experimental part: The UHPLC-MS/MS methods for quantitative assays were validated with respect to selectivity, linearity, precision, accuracy, stability, recovery, matrix effects and dilution integrity (see […]
Linearity was examined over the concentration ranges described in Supplementary Table 1 using a weighted (1/x 2) linear regression in GraphPad Prism 6 (v. 6.04, GraphPad Software […]
Stability was assessed at low, medium and high concentration levels. Long -term stability was assessed for plasma samples at -80°C over a period of 7 days (three aliquots per level; Supplementary Table 3). […]

The mark [8] stands for this setting: high concentration level (2.105-3.115 µmol·L-1).
Where [9] appears, read: low concentration level (0.035-0.156 µmol·L-1).
The mark [10] stands for this setting: medium concentration level (0.702-1.558 µmol·L-1).

Take `CN(C)C(=S)NN=C(c1ccccn1)c1ccccn1` [Dp44mT, di(2-pyridyl)ketone 4,4-dimethyl-3-thiosemicarbazone]: the IC50 (as a rule, the concentration needed to halve the response being measured) in data set [1] was 6 ± 1 nM; in data set [3] it was 2 to 9 nM; in data set [4], 9 ± 2 nM; in data set [5], 2 nM; in data set [6], 124 ± 49 nM. Moreover, in data set [2], the “59Fe mobilization, % of cellular 59Fe” value is 51%. Besides, the Long-term stability in data set [7] (setting [8]) turned out to be 94.93%; in data set [7] (setting [9]) it was 112.56%; in data set [7] (setting [10]), 108.06%. Further, the “decomposition on storage (in words)” value in data set [7] is listed as “No significant decomposition”.

As to `CN(C(=S)NN=C(c1ccccn1)c1ccccn1)C1CCCCC1` [DpC, di(2-pyridyl)ketone 4-cyclohexyl-4-methyl-3-thiosemicarbazone], the 50% inhibitory concentration (IC50) in data set [1] is 5 ± 1 nM; in data set [3] it was 3 to 5 nM; in data set [4], 3 ± 1 nM; in data set [5] it was 3 ± 1 nM; in data set [6] it was 85 ± 13 nM. In data set [2], the “59Fe mobilization, % of cellular 59Fe” value is listed as 44%. For the same molecule, the Long-term stability in data set [7] (setting [8]) is given as 112.39%; in data set [7] (setting [9]), 85.12%; in data set [7] (setting [10]) it was 87.76%. In data set [7], the “decomposition on storage (in words)” value is “No significant decomposition”.
